According to ChEMBL document CHEMBL3286176, “Discovery and structure-activity relationship of novel 2,3-dihydrobenzofuran-7-carboxamide and 2,3-dihydrobenzofuran-3(2H)-one-7-carboxamide derivatives as poly(ADP-ribose)polymerase-1 inhibitors” (J Med Chem, 2014):

molecular target: Poly [ADP-ribose] polymerase 1 (Homo sapiens, UniProt P09874); assay: Inhibition of PARP-1 (unknown origin) using biotinylated NAD+ as substrate after 60 mins by spectrophotometry; conditions: not given
Sequence (P09874 whole entry): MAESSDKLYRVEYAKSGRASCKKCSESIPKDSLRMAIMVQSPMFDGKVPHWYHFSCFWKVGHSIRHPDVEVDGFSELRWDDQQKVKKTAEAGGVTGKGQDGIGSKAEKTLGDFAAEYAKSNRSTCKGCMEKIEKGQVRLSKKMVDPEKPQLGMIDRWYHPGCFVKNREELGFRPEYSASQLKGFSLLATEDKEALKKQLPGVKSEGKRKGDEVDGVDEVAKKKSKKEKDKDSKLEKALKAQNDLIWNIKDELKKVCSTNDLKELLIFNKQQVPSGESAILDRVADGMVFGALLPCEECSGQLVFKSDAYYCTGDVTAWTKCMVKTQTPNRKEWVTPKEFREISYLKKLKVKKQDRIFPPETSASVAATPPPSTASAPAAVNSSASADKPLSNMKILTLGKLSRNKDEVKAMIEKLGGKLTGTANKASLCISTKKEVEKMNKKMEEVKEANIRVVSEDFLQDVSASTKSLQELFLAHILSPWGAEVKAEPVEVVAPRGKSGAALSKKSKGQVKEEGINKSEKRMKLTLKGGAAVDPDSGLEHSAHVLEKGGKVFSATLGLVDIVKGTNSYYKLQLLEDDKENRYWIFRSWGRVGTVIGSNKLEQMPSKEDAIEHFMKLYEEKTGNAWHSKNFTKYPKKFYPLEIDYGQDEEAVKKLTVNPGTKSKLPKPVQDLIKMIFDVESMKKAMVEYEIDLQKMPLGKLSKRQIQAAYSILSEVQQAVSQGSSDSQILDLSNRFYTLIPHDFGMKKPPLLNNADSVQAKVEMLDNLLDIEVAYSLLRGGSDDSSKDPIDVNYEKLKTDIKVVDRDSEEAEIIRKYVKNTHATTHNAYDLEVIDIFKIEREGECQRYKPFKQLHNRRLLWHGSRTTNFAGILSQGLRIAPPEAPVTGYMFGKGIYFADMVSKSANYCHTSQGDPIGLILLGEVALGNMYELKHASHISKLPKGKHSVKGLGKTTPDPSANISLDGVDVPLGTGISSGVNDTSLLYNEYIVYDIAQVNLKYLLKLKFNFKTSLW

| Compound | IC50 [µM] |
| --- | --- |
| CC1Cc2c(N)ccc(C(N)=O)c2O1 (single isomer, unassigned) | 5.33 |
| NC(=O)c1cccc2c1O/C(=C\c1ccc(O)c(O)c1)C2=O | 0.531 |
| NC(=O)c1cccc2c1O/C(=C\c1ccc(O)cc1)C2=O | 0.813 |
| C[C@@H]1Cc2cccc(C(N)=O)c2O1 | 6.34 |
| NC(=O)c1cccc2c1O/C(=C\c1ccc(OCC3CO3)cc1)C2=O (stereo unspecified) | 1.21 |
| COc1ccc(/C=C2\Oc3c(C(N)=O)cccc3C2=O)cc1 | 3.3 |
| NC(=O)c1cccc2c1O/C(=C\c1cccc(Oc3ccccc3)c1)C2=O | 4.65 |
| NC(=O)c1cccc2c1O/C(=C\c1ccc(OCCN3CCN(c4ccc(F)cc4)CC3)cc1)C2=O | 0.445 |
| NC(=O)c1cccc2c1OCC2 | 9.45 |
| C[C@@H]1Cc2cc(F)cc(C(N)=O)c2O1 | 1.53 |
| NC(=O)c1cccc2c1O/C(=C\c1ccc(OCC(=O)N3CCOCC3)cc1)C2=O | 0.223 |
| C[C@H]1Cc2cccc(C(N)=O)c2O1 | 8.44 |
| CC1Cc2cc(N)cc(C(N)=O)c2O1 (stereo unspecified) | > 25 |
| NC(=O)c1cccc2c1O/C(=C\c1cc(O)ccc1O)C2=O | > 10 |
| NC(=O)c1cccc2c1O/C(=C\c1ccc(OCCN3CCOCC3)cc1)C2=O | 2.07 |
| NC(=O)c1cc(F)cc2c1OCC2 | 2.12 |
| NC(=O)c1cccc2c1O/C(=C\c1ccc(OCC(O)CN3CCOCC3)cc1)C2=O (stereo unspecified) | 0.176 |
| CC1Cc2cccc(C(N)=O)c2O1 (racemic) | 10.4 |
| NC(=O)c1cccc2c1O/C(=C\c1cccc(O)c1)C2=O | 2.14 |
| NC(=O)c1cccc2c1OCC2=O | 16.2 |
| NC(=O)c1cccc2c1O/C(=C\c1ccc(OCCCN3CCOCC3)cc1)C2=O | 0.718 |

| Compound | IC50 [µM] |
| --- | --- |
| CC1Cc2cc(F)cc(C(N)=O)c2O1 (racemic) | 2.45 |
| NC(=O)c1cccc2c1O/C(=C\c1ccc(Cl)cc1)C2=O | 6.09 |
| NC(=O)c1cccc2c1O/C(=C\c1ccc(OCCN3CCCCC3)cc1)C2=O | 0.544 |
| CN1CCN(CCCS(=O)(=O)Nc2ccc(/C=C3\Oc4c(C(N)=O)cccc4C3=O)cc2)CC1 | 0.113 |
| NC(=O)c1cc(Br)cc2c1OCC2 | > 25 |
| NC(=O)c1cccc2c1O/C(=C\c1ccc(O)cc1O)C2=O | 0.753 |
| NC(=O)c1cccc2c1O/C(=C\c1cccc(OCCN3CCOCC3)c1)C2=O | > 10 |
| NC(=O)c1cc([N+](=O)[O-])cc2c1OCC2 | > 25 |
| CN1CCN(CCOc2ccc(/C=C3\Oc4c(C(N)=O)cccc4C3=O)cc2)CC1 | 0.114 |
| NC(=O)c1cc(N)cc2c1OCC2 | > 25 |
| CC1Cc2c(N)ccc(C(N)=O)c2O1 (single isomer, unassigned; enantiomer 1) | 2.43 |
| C[C@H]1Cc2cc(F)cc(C(N)=O)c2O1 | 3.62 |
| NC(=O)c1cccc2c1O/C(=C\c1cccc(OCCN3CCCCC3)c1)C2=O | > 10 |
| CC1Cc2cc([N+](=O)[O-])cc(C(N)=O)c2O1 (stereo unspecified) | > 25 |
| NC(=O)c1nn(CCCN2C(=O)C(=O)c3ccccc32)c2ccccc12 | 6.8 |
| CN1CCN(CCS(=O)(=O)Nc2ccc(/C=C3\Oc4c(C(N)=O)cccc4C3=O)cc2)CC1 | 0.079 |
| NC(=O)c1cccc2c1O/C(=C\c1ccccc1O)C2=O | > 10 |
| Cc1cc2c(c(C(N)=O)c1)OC(C)C2 (stereo unspecified) | > 25 |
| NC(=O)c1cccc2c1O/C(=C\c1cc(O)cc(O)c1)C2=O | > 10 |
| COc1cc(/C=C2\Oc3c(C(N)=O)cccc3C2=O)ccc1O | 3.62 |

tested on: not listed separately; assay: Cytotoxicity against chicken BRCA2-deficient DT40 cells assessed as cell viability after 72 hrs by ATPlite assay; type: cell-based, Gallus gallus; conditions: not given

| Compound | IC90 at 72 h [µM] |
| --- | --- |
| CN1CCN(CCOc2ccc(/C=C3\Oc4c(C(N)=O)cccc4C3=O)cc2)CC1 | 5.2 |

tested on: not listed separately; assay: Cytotoxicity against chicken PARP1-deficient DT40 cells assessed as cell viability at 10 uM after 72 hrs by ATPlite assay; type: cell-based, Gallus gallus; conditions: dt40, 72 h

| Compound | Activity |
| --- | --- |
| C[C@]1(c2nc3c(C(N)=O)cccc3[nH]2)CCCN1 [VELIPARIB] | Non-toxic |
| CN1CCN(CCOc2ccc(/C=C3\Oc4c(C(N)=O)cccc4C3=O)cc2)CC1 | Toxic |

tested on: not listed separately; assay: Cytotoxicity against chicken wild-type DT40 cells assessed as cell viability at 10 uM after 72 hrs by ATPlite assay; type: cell-based, Gallus gallus; conditions: dt40, 72 h

| Compound | Activity |
| --- | --- |
| C[C@]1(c2nc3c(C(N)=O)cccc3[nH]2)CCCN1 [VELIPARIB] | Non-toxic |
| CN1CCN(CCOc2ccc(/C=C3\Oc4c(C(N)=O)cccc4C3=O)cc2)CC1 | Toxic |
